Assay results taken from patent EP1189923B1, “AROMATIC AND HETEROCYCLIC DERIVATIVES OF PHYTOSTEROLS AND/OR PHYTOSTANOLS FOR USE IN TREATING OR PREVENTING CARDIOVASCULAR DISEASE” (Forbes Medi-Tech Inc., priority 1999, dated 2000).

Experiments:
[1] = in vivo; cited from earlier work
apo E-KO mice = test: Plasma triglyceride levels in apo E-KO mice fed experimental diets; format: in vivo; conditions: compounds in diet
Experimental: Thus, as outlined below, 40 male apo E-KO mice were divided into 5 groups of 8 with similar mean plasma cholesterol level and body weight. The animals were fed with the experimental diets for 14 weeks.
The animals were bled from the tail at base line and during the experiment for measurement of plasma lipid levels. At the end of the study, the mice were sacrificed using CO2 gas and taking blood from the heart.
Plasma triglyceride levels were measured in clinical lab At St. Paul's Hospital.

## O=C(O)c1cccnc1 [nicotinic acid]
[1]
  elevation of the "good" HDL cholesterol: 20-30%
Apo E-KO mice
  effect on plasma triglyceride levels: reduced triglyceride levels
